Reference: patent US20250270213A1, “PI3Ka INHIBITORS” (Synnovation Therapeutics, Inc., priority 2022, published 2025)

System: T47D (PIK3CA H1047R) cells
Assay: pS473 AKT assay with 2.5% FBS, T47D cells
Type: cell-based
Details: Homo sapiens, pSer473 AKT, DMEM with 2.5% FBS, 2 h treatment, read-out: T47D_IC50
Outline: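 In-cell chemiluminescent ELISA of AKT Ser473 phosphorylation, using anti-pSer473 primary and HRP secondary antibodies on fixed cells. T47D (PIK3CA H1047R) cells had 2 h of compound treatment in DMEM containing 2.5% FBS; IC50 derived from dose-response.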

Compound	IC50
CNC(=O)c1ccc(-c2nc(Cl)ccc2NC(C)c2cc(C)cc3c(=O)n(C)c4c(cnn4CCO)c23)cc1F (stereo not drawn) [Example 243, 4-(6-chloro-3-((1-(3-(2-hydroxyethyl)-4,7-dimethyl-5-oxo-4,5-dihydro-3H-pyrazolo[3,4-c]isoquinolin-9-yl)ethyl)amino)pyridin-2-yl)-2-fluoro-N-methylbenzamide]	< 1000 nM
Cc1cc(C(C)Nc2ccc(Cl)nc2-c2cnn(C)c2)c2c(c1)c(=O)n(C)c1c2cnn1CCO (stereo not drawn) [Example 244, 9-(1-((6-chloro-2-(1-methyl-1H-pyrazol-4-yl)pyridin-3-yl)amino)ethyl)-3-(2-hydroxyethyl)-4,7-dimethyl-3,4-dihydro-5H-pyrazolo[3,4-c]isoquinolin-5-one]	< 1000 nM
Cc1cc(C(C)Nc2ccc(Cl)nc2N2CCC(O)CC2)c2c(c1)c(=O)n(C)c1c2cnn1CCO (stereo not drawn) [Example 245, 9-(1-((6-chloro-2-(4-hydroxypiperidin-1-yl)pyridin-3-yl)amino)ethyl)-3-(2-hydroxyethyl)-4,7-dimethyl-3,4-dihydro-5H-pyrazolo[3,4-c]isoquinolin-5-one]	< 1000 nM
Cc1cc(C(C)Nc2ccc(Cl)nc2-c2ccc3ncccc3c2)c2c(c1)c(=O)n(C)c1c2cnn1CCO (stereo not drawn) [Example 246, 9-(1-((6-chloro-2-(quinolin-6-yl)pyridin-3-yl)amino)ethyl)-3-(2-hydroxyethyl)-4,7-dimethyl-3,4-dihydro-5H-pyrazolo[3,4-c]isoquinolin-5-one]	< 1000 nM
Cc1cc(C(C)Nc2ccc(Cl)nc2-c2ccc3c(cnn3C)c2)c2c(c1)c(=O)n(C)c1c2cnn1CCO (stereo not drawn) [Example 247, 9-(1-((6-chloro-2-(1-methyl-1H-indazol-5-yl)pyridin-3-yl)amino)ethyl)-3-(2-hydroxyethyl)-4,7-dimethyl-3,4-dihydro-5H-pyrazolo[3,4-c]isoquinolin-5-one]	< 1000 nM
Cc1cc(C(C)Nc2ccc(Cl)nc2-c2ccc3c(c2)CN(C)C3=O)c2c(c1)c(=O)n(C)c1c2cnn1CCO (stereo not drawn) [Example 248, 9-(1-((6-chloro-2-(2-methyl-1-oxoisoindolin-5-yl)pyridin-3-yl)amino)ethyl)-3-(2-hydroxyethyl)-4,7-dimethyl-3,4-dihydro-5H-pyrazolo[3,4-c]isoquinolin-5-one]	< 1000 nM
Cc1cc(C(C)Nc2ccc(C)nc2-c2cnn(C)c2)c2c(c1)c(=O)n(C)c1c2cnn1CCO (stereo not drawn) [Example 249, 3-(2-hydroxyethyl)-4,7-dimethyl-9-(1-((6-methyl-2-(1-methyl-1H-pyrazol-4-yl)pyridin-3-yl)amino)ethyl)-3,4-dihydro-5H-pyrazolo[3,4-c]isoquinolin-5-one]	< 1000 nM
Cc1cc(C(C)Nc2ccc(Cl)nc2-c2nnco2)c2c(c1)c(=O)n(C)c1c2cnn1CCO (stereo not drawn) [Example 250, 9-(1-((6-chloro-2-(1,3,4-oxadiazol-2-yl)pyridin-3-yl)amino)ethyl)-3-(2-hydroxyethyl)-4,7-dimethyl-3,4-dihydro-5H-pyrazolo[3,4-c]isoquinolin-5-one]	< 1000 nM
Cc1cc(C(C)Nc2ccc(Cl)nc2-c2nnn(C)n2)c2c(c1)c(=O)n(C)c1c2cnn1CCO (stereo not drawn) [Example 251, 9-(1-((6-chloro-2-(2-methyl-2H-tetrazol-5-yl)pyridin-3-yl)amino)ethyl)-3-(2-hydroxyethyl)-4,7-dimethyl-3,4-dihydro-5H-pyrazolo[3,4-c]isoquinolin-5-one]	< 1000 nM
Cc1cc(C(C)Nc2ccc(Cl)nc2-c2cncnc2)c2c(c1)c(=O)n(C)c1c2cnn1CCO (stereo not drawn) [Example 252, 9-(1-((6-chloro-2-(pyrimidin-5-yl)pyridin-3-yl)amino)ethyl)-3-(2-hydroxyethyl)-4,7-dimethyl-3,4-dihydro-5H-pyrazolo[3,4-c]isoquinolin-5-one]	< 1000 nM
CNC(=O)c1ccc(-c2nc(Cl)ccc2NC(C)c2cc(C)cc3c(=O)n(C)c4c(cnn4CCO)c23)cn1 (stereo not drawn) [Example 253, 5-[6-Chloro-3-[1-[3-(2-hydroxyethyl)-4,7-dimethyl-5-oxo-pyrazolo[3,4-c]isoquinolin-9-yl]ethylamino]-2-pyridyl]-N-methyl-pyridine-2-carboxamide]	< 1000 nM
Cc1cc(C(C)Nc2ccc(Cl)nc2-c2ccc(=O)n(C)c2)c2c(c1)c(=O)n(C)c1c2cnn1CCO (stereo not drawn) [Example 254, 9-[1-[[6-chloro-2-(1-methyl-6-oxo-3-pyridyl)-3-pyridyl]amino]ethyl]-3-(2-hydroxyethyl)-4,7-dimethyl-pyrazolo[3,4-c]isoquinolin-5-one]	< 1000 nM
Cc1cc(C(C)Nc2ccc(Cl)nc2-c2ccn(C)c(=O)c2)c2c(c1)c(=O)n(C)c1c2cnn1CCO (stereo not drawn) [Example 255, 9-[1-[[6-chloro-2-(1-methyl-2-oxo-4-pyridyl)-3-pyridyl]amino]ethyl]-3-(2-hydroxyethyl)-4,7-dimethyl-pyrazolo[3,4-c]isoquinolin-5-one]	< 1000 nM
COc1cc(-c2nc(Cl)ccc2NC(C)c2cc(C)cc3c(=O)n(C)c4c(cnn4CCO)c23)ccn1 (stereo not drawn) [Example 256, 9-[1-[[6-chloro-2-(2-methoxy-4-pyridyl)-3-pyridyl]amino]ethyl]-3-(2-hydroxyethyl)-4,7-dimethyl-pyrazolo[3,4-c]isoquinolin-5-one]	< 1000 nM
Cc1cc(C(C)Nc2ccc(Cl)nc2C2CCN(C)CC2)c2c(c1)c(=O)n(C)c1c2cnn1CCO (stereo not drawn) [Example 257, 9-[1-[[6-Chloro-2-(1-methyl-4-piperidyl)-3-pyridyl]amino]ethyl]-3-(2-hydroxyethyl)-4,7-dimethyl-pyrazolo[3,4-c]isoquinolin-5-one]	< 1000 nM
CC(=O)N1CCC(c2nc(Cl)ccc2NC(C)c2cc(C)cc3c(=O)n(C)c4c(cnn4CCO)c23)CC1 (stereo not drawn) [Example 258, 9-[1-[[2-(1-Acetyl-4-piperidyl)-6-chloro-3-pyridyl]amino]ethyl]-3-(2-hydroxyethyl)-4,7-dimethyl-pyrazolo[3,4-c]isoquinolin-5-one]	< 1000 nM
Cc1cc(C(C)Nc2ccc(Cl)nc2-c2ncn(C)n2)c2c(c1)c(=O)n(CC(F)F)c1c2cnn1CCO (stereo not drawn) [Example 259, 9-[1-[[6-Chloro-2-(1-methyl-1,2,4-triazol-3-yl)-3-pyridyl]amino]ethyl]-4-(2,2-difluoroethyl)-3-(2-hydroxyethyl)-7-methyl-pyrazolo[3,4-c]isoquinolin-5-one]	< 1000 nM
CNC(=O)c1ccc(-c2nc(Cl)ccc2NC(C)c2cc(C)cc3c(=O)n(CC(F)F)c4c(cnn4CCO)c23)cn1 (stereo not drawn) [Example 260, 5-[6-Chloro-3-[1-[4-(2,2-difluoroethyl)-3-(2-hydroxyethyl)-7-methyl-5-oxo-pyrazolo[3,4-c]isoquinolin-9-yl]ethylamino]-2-pyridyl]-N-methyl-pyridine-2-carboxamide]	< 1000 nM
CCn1c(=O)c2cc(C)cc(C(C)Nc3ccc(Cl)nc3-c3ncn(C)n3)c2c2cnn(CCO)c21 (stereo not drawn) [Example 261, 9-[1-[[6-Chloro-2-(1-methyl-1,2,4-triazol-3-yl)-3-pyridyl]amino]ethyl]-4-ethyl-3-(2-hydroxyethyl)-7-methyl-pyrazolo[3,4-c]isoquinolin-5-one]	< 1000 nM
CCn1c(=O)c2cc(C)cc(C(C)Nc3ccc(Cl)nc3N3CCOCC3)c2c2cnn(CCO)c21 (stereo not drawn) [Example 262, 9-[1-[(6-Chloro-2-morpholino-3-pyridyl)amino]ethyl]-4-ethyl-3-(2-hydroxyethyl)-7-methyl-pyrazolo[3,4-c]isoquinolin-5-one]	< 1000 nM
Cc1cc(C(C)Nc2ccc(Cl)nc2-c2cnn(C)c2)c2c(c1)c(=O)n(C)c1c2cnn1CCN1CCOCC1 (stereo not drawn) [Example 263, 9-[1-[[6-Chloro-2-(1-methylpyrazol-4-yl)-3-pyridyl]amino]ethyl]-4,7-dimethyl-3-(2-morpholinoethyl)pyrazolo[3,4-c]isoquinolin-5-one]	< 1000 nM
Cc1cc(C(C)Nc2ccc(Cl)nc2-c2ccncc2F)c2c(c1)c(=O)n(C)c1c2cnn1CCN1CCOCC1 (stereo not drawn) [Example 264, 9-(1-((6-chloro-3′-fluoro-[2,4′-bipyridin]-3-yl)amino)ethyl)-4,7-dimethyl-3-(2-morpholinoethyl)-3,4-dihydro-5H-pyrazolo[3,4-c]isoquinolin-5-one]	< 1000 nM
Cc1cc(C(C)Nc2ccc(Cl)nc2-c2ccncc2F)c2c(c1)c(=O)n(C)c1c2cnn1CCN1CCN(C)CC1 (stereo not drawn) [Example 265, 9-(1-((6-chloro-3′-fluoro-[2,4′-bipyridin]-3-yl)amino)ethyl)-4,7-dimethyl-3-(2-(4-methylpiperazin-1-yl)ethyl)-3,4-dihydro-5H-pyrazolo[3,4-c]isoquinolin-5-one]	< 1000 nM
CNC(=O)c1ccc(-c2nc(Cl)ccc2NC(C)c2cc(C)cc3c(=O)n(C)c4c(cnn4CCN4CCOCC4)c23)cc1F (stereo not drawn) [Example 266, 4-(6-chloro-3-((1-(4,7-dimethyl-3-(2-morpholinoethyl)-5-oxo-4,5-dihydro-3H-pyrazolo[3,4-c]isoquinolin-9-yl)ethyl)amino)pyridin-2-yl)-2-fluoro-N-methylbenzamide]	< 1000 nM
CNC(=O)c1ccc(-c2nc(Cl)ccc2NC(C)c2cc(C)cc3c(=O)n(C)c4c(cnn4CCN4CCN(C)CC4)c23)cc1F (stereo not drawn) [Example 267, 4-(6-chloro-3-((1-(4,7-dimethyl-3-(2-(4-methylpiperazin-1-yl)ethyl)-5-oxo-4,5-dihydro-3H-pyrazolo[3,4-c]isoquinolin-9-yl)ethyl)amino)pyridin-2-yl)-2-fluoro-N-methylbenzamide]	< 1000 nM
Cc1cc(C(C)Nc2ccc(Cl)nc2-c2ncn(C)n2)c2c(c1)c(=O)n(CC(F)F)c1c2cnn1CCN1CCn2ncnc2C1 (stereo not drawn) [Example 268, 9-(1-((6-chloro-2-(1-methyl-1H-1,2,4-triazol-3-yl)pyridin-3-yl)amino)ethyl)-4-(2,2-difluoroethyl)-3-(2-(5,6-dihydro-[1,2,4]triazolo[1,5-a]pyrazin-7(8H)-yl)ethyl)-7-methyl-3,4-dihydro-5H-pyrazolo[3,4-c]isoquinolin-5-one]	< 1000 nM
CCn1c(=O)c2cc(C)cc(C(C)Nc3ccc(Cl)nc3-c3ncn(C)n3)c2c2cnn(-c3ccccn3)c21 (stereo not drawn) [Example 269, 9-[1-[[6-Chloro-2-(1-methyl-1,2,4-triazol-3-yl)-3-pyridyl]amino]ethyl]-4-ethyl-7-methyl-3-(2-pyridyl)pyrazolo[3,4-c]isoquinolin-5-one]	< 1000 nM
